Results from patent US6969590B2, “Use of a polypeptide for treatment of pruritus in animals” (Zengen, Inc., priority 2001, dated 2005).

Experiments:
[1] = system: edema caused by intradermal injection of human recombinant IL-1β in the mouse ear; experiment: Ear edema by intradermal recombinant human IL-1β; type: in vivo, BALB/c mice; details: centrally administered peptide, propranolol injected centrally
Experimental: Female BALB/c mice (Simonsen Laboratories, Gilroy, Calif.), 7-8 weeks old, were housed at 23-25° C. in groups not exceeding five animals per cage [28 cm (L)×18 cm (W)×13 cm (H)]. Before the experiments they were acclimatized for not less than 1 week before experimentation to standard lighting and temperature conditions with food and water freely available.
Mice were anesthetized with 10% pentobarbital sodium solution (1 mg/mouse, 50 mg/ml, Nembutal sodium solution; Abbott Laboratories, North Chicago, Ill.). Baseline ear thickness measurements were taken with a spring-loaded micrometer (Swiss Precision Instruments, Los Angeles, Calif.). Ear thickness was expressed in cubic centimeters and was measured at least twice at each time point. The average thickness of unstimulated ears was […]. Inflammation was induced by intradermal injection of 20 μl of recombinant human IL-1β (1500 U; Genzyme, Cambridge, Mass.) in one ear of each mouse using a 28 gauge needle (Hiltz et al., 1992). Measures of ear thickness were repeated 4 and 6 hr later, while the mice were under sodium pentobarbital anesthesia. Edema was assessed by subtracting baseline measures from 4 and 6 hr readings for each animal. α-MSH (11-13) (1663.9 gm/mol; Peninsula Laboratories, Belmont, Calif.) or α-MSH (11-13) (383.48 gm/mol; Peninsula Laboratories) dissolved in saline was injected intracerebroventricularly (20 μl) using procedures described previously (Lipton et al., 1991; Lipton and Catania, 1993).
Several agents were administered at the time of ear challenge to pharmacologically block certain receptors: atropine (Sigma Chemical Co.; 150 μg i.p.), a muscarinic receptor blocker that acts on autonomic end-organ receptors, was chosen because of links between inflammation and modulation of pain and the finding that muscarinic antagonists increase pain threshold (Hartvig et al., 1989); phentolamine (Sigma; 150 μg i.p.) an agent that competes for occupancy of α-adrenergic receptors; propranolol (Sigma; 150 μg, i.p.; 30 μg, i.c.v.), a nonspecific competitive antagonist for β-adrenergic receptors.
Because of the size of the experiments and the requirement for several shipments of animals over time, several experiments were performed, each with complete treatment and control groups drawn from the same shipment of mice. Omnibus analysis of variance techniques (Dynastat, Washington, D.C.) were used to test overall differences among group means. Tukey's protected t test was used to compare individual means. Probability values of <0.05 were considered significant.

IL-6 = IL-6 production by activated N9 microglia; type: cell-based, murine; details: microglia stimulated with LPS+IFN-γ for 24 hr, micromolar concentrations
Experimental: (§1) The N9 clone of murine microglial cells was obtained by immortalization of embryonic brain cultures with the 3RV retrovirus carrying an activated v-myconcogene. N9 cells were cultured in T-75-cm^2 culture flasks (Corning, Cambridge, Mass.) and maintained at 37° C. in a humidified incubator under 5% CO2 atmosphere in RPMI 1640 supplemented with 2 mM L-glutamine, 50 U/mL penicillin G, 50 μg/mL streptomycin sulfate (GIBCO-BBL, Paisley, UK), and 10% heat-inactivated fetal bovine serum (FBS, Hyclone Lab, Inc., Logan, Utah) until experiments were performed. Cells were used between the first and the tenth passage.
(§2) Sub-confluent microglial cells were washed twice with phosphate-buffered saline (PBS) and incubated with trypsin 0.025% and ethylenediaminetetraacetate (EDTA) 0.02% without calcium and magnesium for 3 min. at 37° C. to detach the cells from the culture flask. Cells were then resuspended in medium and incubated in 24-well tissue-culture plates at a concentration of 2×10^5 cells/mL for 16 h in a humidified incubator (37° C., 5% CO2). Growth medium was removed and cell monolayers were stimulated with 10 ng/mL lipopolysaccharide (LPS, from Escherichia coli 055:B5, Sigma Chemical Co., St. Louis, Mo.) plus 1 U/ml, murine IFN-γ (Sigma). To test effects of melanocortin peptides, concentrations (1, 10, 25, 50 and 100 μM) of α-MSH (1-13), α-MSH (11-13), and ACTH (1-24) (Sigma) were dissolved in medium and added to wells 10 min before treatment with LPS+IFN-γ. […] Viability of cells was assessed by trypan blue exclusion for each experimental condition; it was consistently >98%. […]
(§3) TNF-α bioactivity was measured in supernatants of cell cultures by standard cytotoxicity assay using L929 cells and recombinant human TNF-α (Sigma) as standard. […] IL-6 was measured using a commercial murine enzyme-linked immunosorbent assay (ELISA: RPN 2714, Amersham, Little Chalfont, UK).
(§4) Effects of melanocortin peptides on cytokine and NO production were evaluated by repeated measures analysis of variance followed by Dunnet's test for specific comparisons. […]

cAMP = cAMP accumulation in N9 cells; type: cell-based, murine; details: resting cells and cells incubated with LPS+IFN-γ
Experimental: cAMP accumulation in N9 cells was measured as previously described. Briefly, cells in six-well plates were co-incubated at 37° C. with (1) medium; (2) forskolin (100 μM); (3) LPS (10 ng/mL)+IFN-γ (1 U/mL); (4) α-MSH (1-13) or α-MSH (11-13) (1, 10, 50 μM); (5) LPS+IFN-γ and either α-MSN (1-13) or α-MSH (11-13) (10 μM). Reactions were stopped after 3 min by aspirating supernatants, immediately adding 1 mL ethanol at −20° C. and freezing. cAMP content in the ethanol-soluble fraction was measured using an enzyme immunoassay kit (Amersham).

NO2^− = experiment: Nitrite (NO) production by activated N9 microglia; type: cell-based, murine; details: microglia stimulated with LPS+IFN-γ for 24 hr, micromolar concentrations
Experimental: as §1, §2
NO is rapidly oxidized to nitrite (NO2) in culture medium, and nitrite concentration is an indicator of NO production. […] Samples were incubated at room temperature for 10 min and absorbency was measured at 540 nm with the use of a microplate reader. Nitrite concentrations were calculated using a sodium nitrite standard curve.
as §4

TNF-α = TNF-α production by activated N9 microglia; type: cell-based, murine; details: microglia stimulated with LPS+IFN-γ for 24 hr, micromolar concentrations
Experimental: as §1, §2, §3, §4

Sequence: SYSMEHFRWGKPV [α-MSH (1-13)]
- inhibition of ear edema ([1]; 4 hr): 36%
- inhibition of ear edema ([1]; 6 hr): 32%
- reduction of production of IL-6 (IL-6): 31%
- cAMP accumulation (cAMP): increased cAMP accumlation
- reduction of production of NO2^− (NO2^−): 42%
- reduction of production of TNF-α (TNF-α): 43%
